{"source": "patent EP4556005A1", "about": "“COMPOUND FOR TREATING FLAVIVIRUS INFECTIONS” (Leibniz-Institut für Virologie, priority 2023, dated 2025)", "key": {"ZIKV (PRVABC59 strain)": {"test_system": "ZIKV (PRVABC59 strain)", "assay": "Zika virus replication in infected JEG-3 cells, plaque-forming unit assay (PFU) on VeroE6 cells", "format": "cell-based", "conditions": "wild-type JEG-3 cells, MOI 0.01, 16 µM or 32 µM added after virus absorption, supernatants analysed forty-height (48) hours later; n=4; Mann-Whitney test p-value < 0.05", "protocol": "Then, the effect of UBA5-inhibitor DKM29-3 on Zika virus replication was studied. Wild-type JEG-3 cells were seeded as described above and infected with ZIKV (PRVABC59 strain) at an MOI (Multiplicity of Infection) of 0.01 for 1h at 37°C. After virus absorption the cells monolayers were washed with PBS (Phosphate Buffer Saline), and cell culture media containing 16 µM or 32 µM of DKM29-3 were added to the cells. Forty-height hours later virus-containing supernatants were analyzed by plaque-forming unit assay (PFU) on VeroE6 cells (n=4; Mann-Whitney test p-value < 0.05)."}, "[1]": {"assay": "Cytotoxicity, cell viability by Resazurin assay", "format": "cell-based", "conditions": "human, JEG-3 human placental cells; naive JEG-3 cells, 24-well plates (8×10^4 cells/well), increasing amounts of inhibitor, viability read forty-height (48) hours later; Figure 3A; read-out: 50% cytotoxicity concentration (CC50)", "protocol": "In a first experiment, the cytotoxicity of the UBA5 inhibitor DKM29-3 was determined. Naive JEG-3 human placental cells were seeded in 24-well plates (8×10^4 cells/well) and on the next day treated with increasing amounts of the UBA5 inhibitor DKM29-3."}}, "data": [{"compound": "COc1ccc(CNC(=O)CCl)cc1OC", "note": "[DKM29-3, 2-chloro-N-(3,4-dimethoxybenzyl)acetamide]", "values": [{"measurement": "Zika virus replication", "setting": "ZIKV (PRVABC59 strain)", "result": "significantly reduced"}, {"measurement": "CC50 at 48 h", "setting": "[1]", "result": 80.2, "unit": "µM"}]}]}
